Test results published in ChEMBL document CHEMBL1909046, “DrugMatrix in vitro pharmacology data”.

Columns and labels:
[1] = DRUGMATRIX: GABAA, Chloride Channel, TBOB radioligand binding (ligand: [3H] TBOB); format: cell membranes, Rattus norvegicus, Wistar, Cerebral cortex, Membrane; conditions: Not Active = under 50% inhibition at 10 µM
Insulin receptor = Insulin receptor (Rattus norvegicus, UniProt P15127); format: cell membranes, Wistar, Liver, Membrane; note: in other assays of this panel Not Active means under 50% inhibition at 10 µM
Sequence of Insulin receptor (P15127 27-759 limits assumed): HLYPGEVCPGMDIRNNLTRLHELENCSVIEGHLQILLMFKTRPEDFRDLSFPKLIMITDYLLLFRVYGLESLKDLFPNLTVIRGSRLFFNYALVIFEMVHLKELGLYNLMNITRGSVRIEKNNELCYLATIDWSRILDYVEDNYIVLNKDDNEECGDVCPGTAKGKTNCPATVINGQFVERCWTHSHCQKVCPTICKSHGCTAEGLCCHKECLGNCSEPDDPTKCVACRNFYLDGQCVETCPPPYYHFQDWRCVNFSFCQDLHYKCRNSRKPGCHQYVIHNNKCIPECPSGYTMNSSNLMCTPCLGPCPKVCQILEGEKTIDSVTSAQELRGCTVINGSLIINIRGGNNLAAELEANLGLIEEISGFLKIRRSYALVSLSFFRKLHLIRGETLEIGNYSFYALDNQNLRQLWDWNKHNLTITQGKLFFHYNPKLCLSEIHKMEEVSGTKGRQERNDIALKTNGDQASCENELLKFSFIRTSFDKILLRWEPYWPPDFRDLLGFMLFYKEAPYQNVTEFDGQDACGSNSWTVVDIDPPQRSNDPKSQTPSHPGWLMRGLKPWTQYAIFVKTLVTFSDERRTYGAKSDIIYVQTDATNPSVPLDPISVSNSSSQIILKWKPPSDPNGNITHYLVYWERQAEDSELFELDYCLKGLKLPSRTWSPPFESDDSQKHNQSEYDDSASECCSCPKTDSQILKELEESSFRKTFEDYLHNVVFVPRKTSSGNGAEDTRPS
Sequence of Insulin receptor (P15127 764-1383 limits assumed): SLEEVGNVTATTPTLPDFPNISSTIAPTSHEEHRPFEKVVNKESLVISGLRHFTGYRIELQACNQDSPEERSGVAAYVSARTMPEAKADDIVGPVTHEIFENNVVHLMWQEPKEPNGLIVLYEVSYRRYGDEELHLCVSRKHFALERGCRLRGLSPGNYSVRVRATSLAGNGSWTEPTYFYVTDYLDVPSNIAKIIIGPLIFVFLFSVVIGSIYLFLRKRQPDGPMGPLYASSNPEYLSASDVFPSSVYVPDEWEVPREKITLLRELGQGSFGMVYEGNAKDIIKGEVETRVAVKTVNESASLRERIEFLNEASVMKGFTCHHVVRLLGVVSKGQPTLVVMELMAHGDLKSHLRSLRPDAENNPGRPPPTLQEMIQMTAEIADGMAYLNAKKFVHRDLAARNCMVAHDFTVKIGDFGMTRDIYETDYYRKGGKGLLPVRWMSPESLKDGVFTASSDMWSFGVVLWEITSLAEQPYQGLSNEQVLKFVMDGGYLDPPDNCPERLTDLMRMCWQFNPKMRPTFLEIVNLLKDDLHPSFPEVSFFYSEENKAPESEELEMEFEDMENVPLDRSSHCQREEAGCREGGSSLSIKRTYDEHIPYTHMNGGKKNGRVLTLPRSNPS

Melanocortin receptor 4 = Melanocortin receptor 4 (Homo sapiens, UniProt P32245); format: cell membranes, Membrane; conditions: hek293; note: in other assays of this panel Not Active means under 50% inhibition at 10 µM
Sequence of Melanocortin receptor 4 (P32245 whole entry): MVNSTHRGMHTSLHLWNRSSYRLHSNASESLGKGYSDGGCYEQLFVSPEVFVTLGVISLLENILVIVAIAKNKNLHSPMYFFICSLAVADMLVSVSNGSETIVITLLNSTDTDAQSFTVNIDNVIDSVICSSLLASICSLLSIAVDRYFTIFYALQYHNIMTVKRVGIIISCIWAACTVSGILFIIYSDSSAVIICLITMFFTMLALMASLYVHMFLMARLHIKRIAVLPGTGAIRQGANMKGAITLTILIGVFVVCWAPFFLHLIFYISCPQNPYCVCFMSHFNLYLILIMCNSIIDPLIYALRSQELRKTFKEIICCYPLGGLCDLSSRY

[2] = DRUGMATRIX: Phosphodiesterase PDE3 enzyme inhibition (substrate: [3H]cAMP + cAMP); format: tissue-based, Homo sapiens; conditions: platelet; Not Active = under 50% inhibition at 10 µM
[3] = molecular target: Receptor tyrosine-protein kinase erbB-2 (Homo sapiens, UniProt P04626); test: biochemical; format: cell-based, Insect cells; conditions: insect cells;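 note: inhibition of HER2 kinase enzyme activity, measured with Poly(Glu:Tyr) as the phosphorylation substrate; in other assays of this panel Not Active means under 50% inhibition at 10 µM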
Sequence of Receptor tyrosine-protein kinase erbB-2 (P04626 whole entry): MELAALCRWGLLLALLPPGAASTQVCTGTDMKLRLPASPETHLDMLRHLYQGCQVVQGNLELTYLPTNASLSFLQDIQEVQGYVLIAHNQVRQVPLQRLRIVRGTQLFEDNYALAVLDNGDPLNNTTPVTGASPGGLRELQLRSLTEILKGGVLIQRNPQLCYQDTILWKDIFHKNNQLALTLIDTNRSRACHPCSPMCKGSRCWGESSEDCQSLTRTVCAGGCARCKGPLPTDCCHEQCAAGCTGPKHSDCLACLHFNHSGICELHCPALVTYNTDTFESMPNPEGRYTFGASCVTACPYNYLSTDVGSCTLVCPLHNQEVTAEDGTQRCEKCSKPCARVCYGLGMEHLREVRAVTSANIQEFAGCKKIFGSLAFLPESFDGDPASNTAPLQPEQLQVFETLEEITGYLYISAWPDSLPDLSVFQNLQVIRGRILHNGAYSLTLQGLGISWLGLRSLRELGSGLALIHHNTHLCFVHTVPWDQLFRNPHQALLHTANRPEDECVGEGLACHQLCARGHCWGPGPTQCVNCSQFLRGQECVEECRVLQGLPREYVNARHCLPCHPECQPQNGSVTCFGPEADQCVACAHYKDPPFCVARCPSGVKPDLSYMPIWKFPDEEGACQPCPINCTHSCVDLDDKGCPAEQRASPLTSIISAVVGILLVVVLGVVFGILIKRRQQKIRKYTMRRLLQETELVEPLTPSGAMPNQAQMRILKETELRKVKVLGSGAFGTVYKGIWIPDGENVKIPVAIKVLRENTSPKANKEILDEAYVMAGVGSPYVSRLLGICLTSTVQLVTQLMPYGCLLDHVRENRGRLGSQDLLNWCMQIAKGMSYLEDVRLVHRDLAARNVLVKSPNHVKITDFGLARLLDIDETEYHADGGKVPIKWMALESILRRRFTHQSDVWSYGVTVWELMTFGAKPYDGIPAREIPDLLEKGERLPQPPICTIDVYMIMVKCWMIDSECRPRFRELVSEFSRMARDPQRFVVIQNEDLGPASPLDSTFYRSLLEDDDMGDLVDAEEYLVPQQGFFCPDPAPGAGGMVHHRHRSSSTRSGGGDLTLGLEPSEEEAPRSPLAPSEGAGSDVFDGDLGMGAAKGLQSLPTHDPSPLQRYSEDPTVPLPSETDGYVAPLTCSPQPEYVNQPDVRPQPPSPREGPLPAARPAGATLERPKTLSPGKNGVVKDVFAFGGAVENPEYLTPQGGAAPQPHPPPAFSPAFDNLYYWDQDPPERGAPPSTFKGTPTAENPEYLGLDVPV

[4] = molecular target: T1, Receptor-type tyrosine-protein phosphatase C (Homo sapiens, UniProt P08575); set-up: species or system Escherichia coli;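 note: inhibition of CD45 enzyme activity measured using DiFMUP as substrate; in other assays of this panel Not Active means under 50% inhibition at 10 µM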
T1 sequence (P08575 whole entry): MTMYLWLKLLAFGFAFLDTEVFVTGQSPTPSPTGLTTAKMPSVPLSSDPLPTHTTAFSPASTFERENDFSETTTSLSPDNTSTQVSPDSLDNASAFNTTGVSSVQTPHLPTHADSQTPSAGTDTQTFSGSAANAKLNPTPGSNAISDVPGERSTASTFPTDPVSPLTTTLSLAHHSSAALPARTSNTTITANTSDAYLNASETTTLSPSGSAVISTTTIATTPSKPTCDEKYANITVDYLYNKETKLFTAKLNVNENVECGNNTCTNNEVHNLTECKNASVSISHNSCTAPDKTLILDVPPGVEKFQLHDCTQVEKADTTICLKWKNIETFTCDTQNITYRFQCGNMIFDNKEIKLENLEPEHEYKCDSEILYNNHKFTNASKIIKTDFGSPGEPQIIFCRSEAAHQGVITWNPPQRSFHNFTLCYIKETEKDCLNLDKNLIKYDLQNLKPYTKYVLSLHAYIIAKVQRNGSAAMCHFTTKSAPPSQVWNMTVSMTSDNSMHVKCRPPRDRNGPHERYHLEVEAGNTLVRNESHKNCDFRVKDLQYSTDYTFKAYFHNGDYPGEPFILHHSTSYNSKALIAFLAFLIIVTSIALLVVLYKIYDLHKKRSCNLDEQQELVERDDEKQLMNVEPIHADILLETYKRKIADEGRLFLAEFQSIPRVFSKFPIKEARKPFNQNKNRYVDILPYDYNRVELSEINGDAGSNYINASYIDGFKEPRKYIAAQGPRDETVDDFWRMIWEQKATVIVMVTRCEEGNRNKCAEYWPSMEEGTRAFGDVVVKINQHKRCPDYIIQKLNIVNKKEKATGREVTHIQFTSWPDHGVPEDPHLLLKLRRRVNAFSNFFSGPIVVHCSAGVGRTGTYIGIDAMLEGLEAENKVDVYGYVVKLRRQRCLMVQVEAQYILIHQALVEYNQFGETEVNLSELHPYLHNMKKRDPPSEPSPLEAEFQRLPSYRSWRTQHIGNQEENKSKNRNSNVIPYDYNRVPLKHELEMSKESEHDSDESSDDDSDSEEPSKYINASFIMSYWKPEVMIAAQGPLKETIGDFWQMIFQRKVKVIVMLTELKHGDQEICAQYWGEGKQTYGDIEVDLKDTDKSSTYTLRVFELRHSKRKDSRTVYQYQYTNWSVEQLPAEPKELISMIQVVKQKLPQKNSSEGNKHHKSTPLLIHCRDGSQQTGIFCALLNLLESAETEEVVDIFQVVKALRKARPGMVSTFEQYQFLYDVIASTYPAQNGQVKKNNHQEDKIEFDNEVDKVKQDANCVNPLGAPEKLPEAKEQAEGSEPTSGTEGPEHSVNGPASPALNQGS

Cytochrome P450 2D6 = Cytochrome P450 2D6 (Homo sapiens, UniProt P10635); conditions: bti-tn-5b1-4; note: in other assays of this panel Not Active means under 50% inhibition at 10 µM
Sequence of Cytochrome P450 2D6 (P10635 whole entry): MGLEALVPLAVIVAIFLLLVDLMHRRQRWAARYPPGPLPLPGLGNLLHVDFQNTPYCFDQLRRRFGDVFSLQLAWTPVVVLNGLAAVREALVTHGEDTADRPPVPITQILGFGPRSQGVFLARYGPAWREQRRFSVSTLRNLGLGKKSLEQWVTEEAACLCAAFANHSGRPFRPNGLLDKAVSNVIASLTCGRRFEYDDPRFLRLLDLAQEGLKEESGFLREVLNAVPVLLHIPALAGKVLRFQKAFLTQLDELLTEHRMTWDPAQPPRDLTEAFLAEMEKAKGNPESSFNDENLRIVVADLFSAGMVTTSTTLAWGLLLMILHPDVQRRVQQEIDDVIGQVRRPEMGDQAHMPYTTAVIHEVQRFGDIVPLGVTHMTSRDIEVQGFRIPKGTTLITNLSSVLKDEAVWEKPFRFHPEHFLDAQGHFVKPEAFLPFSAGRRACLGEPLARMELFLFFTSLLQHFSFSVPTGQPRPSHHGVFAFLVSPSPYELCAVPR

COc1ccccc1N
Not Active: IC50 [1] | Ki [1] | IC50 (Insulin receptor) | IC50 (Melanocortin receptor 4) | IC50 [2] | Ki [2] | IC50 [3] | IC50 [4] | IC50 (Cytochrome P450 2D6) | Ki (Cytochrome P450 2D6)

Cc1c(O)cccc1C(=O)N[C@@H](CSc1ccccc1)[C@H](O)CN1C[C@H]2CCCC[C@H]2C[C@H]1C(=O)NC(C)(C)C
Not Active: IC50 [1] | Ki [1] | IC50 (Insulin receptor) | IC50 (Melanocortin receptor 4) | IC50 [2] | Ki [2] | IC50 [3] | IC50 [4] | IC50 (Cytochrome P450 2D6) | Ki (Cytochrome P450 2D6)

C[C@H]1O[C@H](O[C@H]2[C@H](O)[C@@H](O)[C@@H](O[C@H]3[C@H](O)[C@@H](O)C(O)O[C@@H]3CO)O[C@@H]2CO)[C@H](O)[C@@H](O)[C@@H]1N[C@H]1C=C(CO)[C@@H](O)[C@H](O)[C@H]1O (stereo partly specified) [ACARBOSE]
Not Active: IC50 [1] | Ki [1] | IC50 (Insulin receptor) | IC50 (Melanocortin receptor 4) | IC50 [2] | Ki [2] | IC50 [3] | IC50 [4] | IC50 (Cytochrome P450 2D6) | Ki (Cytochrome P450 2D6)

NC12CC3CC(CC(C3)C1)C2 [AMANTADINE]
Not Active: IC50 [1] | Ki [1] | IC50 (Insulin receptor) | IC50 (Melanocortin receptor 4) | IC50 [2] | Ki [2] | IC50 [3] | IC50 [4]

CC(C)c1c(C(=O)Nc2ccccc2)c(-c2ccccc2)c(-c2ccc(F)cc2)n1CC[C@@H](O)C[C@@H](O)CC(=O)O [ATORVASTATIN]
Not Active: IC50 [1] | Ki [1] | IC50 (Insulin receptor) | IC50 (Melanocortin receptor 4) | IC50 [2] | Ki [2] | IC50 [3] | IC50 [4]

C[C@H]1[C@H](NC(=O)/C(=N\OC(C)(C)C(=O)O)c2csc(N)n2)C(=O)N1S(=O)(=O)O [AZTREONAM]
Not Active: IC50 [1] | Ki [1] | IC50 (Insulin receptor) | IC50 (Melanocortin receptor 4) | IC50 [2] | Ki [2] | IC50 [3] | IC50 [4] | IC50 (Cytochrome P450 2D6) | Ki (Cytochrome P450 2D6)

COc1cc(OC)c(C(=O)CCCN2CCCC2)c(OC)c1 [BUFLOMEDIL]
Not Active: IC50 [1] | Ki [1] | IC50 (Insulin receptor) | IC50 (Melanocortin receptor 4) | IC50 [2] | Ki [2] | IC50 [3] | IC50 [4] | IC50 (Cytochrome P450 2D6) | Ki (Cytochrome P450 2D6)

Cn1c(=O)c2c(ncn2C)n(C)c1=O [CAFFEINE]
Not Active: IC50 [1] | Ki [1] | IC50 (Insulin receptor) | IC50 (Melanocortin receptor 4) | IC50 [2] | Ki [2] | IC50 [3] | IC50 [4] | IC50 (Cytochrome P450 2D6) | Ki (Cytochrome P450 2D6)

CO/N=C(\C(=O)N[C@@H]1C(=O)N2C(C(=O)O)=C(COC(C)=O)CS[C@H]12)c1csc(N)n1 [CEFOTAXIME]
Not Active: IC50 [1] | Ki [1] | IC50 (Insulin receptor) | IC50 (Melanocortin receptor 4) | IC50 [2] | Ki [2] | IC50 [3] | IC50 [4] | IC50 (Cytochrome P450 2D6) | Ki (Cytochrome P450 2D6)

Cc1cc(O)cc(C)c1Cl [CHLOROXYLENOL]
Not Active: IC50 [1] | Ki [1] | IC50 (Insulin receptor) | IC50 (Melanocortin receptor 4) | IC50 [2] | Ki [2] | IC50 [3] | IC50 [4] | IC50 (Cytochrome P450 2D6) | Ki (Cytochrome P450 2D6)

NS(=O)(=O)c1cc(C2(O)NC(=O)c3ccccc32)ccc1Cl (stereo unspecified) [CHLORTHALIDONE]
Not Active: IC50 [1] | Ki [1] | IC50 (Insulin receptor) | IC50 (Melanocortin receptor 4) | IC50 [2] | Ki [2] | IC50 [3] | IC50 [4] | IC50 (Cytochrome P450 2D6) | Ki (Cytochrome P450 2D6)

COc1cccc2c1C(=O)c1c(O)c3c(c(O)c1C2=O)C[C@@](O)(C(C)=O)C[C@@H]3O[C@H]1C[C@H](N)[C@H](O)[C@H](C)O1 [DAUNORUBICIN]
Not Active: IC50 [1] | Ki [1] | IC50 (Insulin receptor) | IC50 (Melanocortin receptor 4) | IC50 [2] | Ki [2] | IC50 [3] | IC50 [4] | IC50 (Cytochrome P450 2D6) | Ki (Cytochrome P450 2D6)

C[S+](C)[O-] [DIMETHYL SULFOXIDE]
Not Active: IC50 [1] | Ki [1] | IC50 (Insulin receptor) | IC50 (Melanocortin receptor 4) | IC50 [2] | Ki [2] | IC50 [3] | Ki [4] | IC50 (Cytochrome P450 2D6) | Ki (Cytochrome P450 2D6)

C[C@]12CC[C@@H]3c4ccc(O)cc4CC[C@H]3[C@@H]1C[C@@H](O)[C@@H]2O [ESTRIOL]
Not Active: IC50 [1] | Ki [1] | IC50 (Insulin receptor) | IC50 (Melanocortin receptor 4) | IC50 [2] | Ki [2] | IC50 [3] | IC50 [4] | IC50 (Cytochrome P450 2D6) | Ki (Cytochrome P450 2D6)

C#C[C@]1(O)CC[C@H]2[C@@H]3CCC4=CC(=O)CC[C@]4(C)[C@H]3CC[C@@]21C [ETHISTERONE]
Not Active: IC50 [1] | Ki [1] | IC50 (Insulin receptor) | IC50 (Melanocortin receptor 4) | IC50 [2] | Ki [2] | IC50 [3] | IC50 [4] | IC50 (Cytochrome P450 2D6) | Ki (Cytochrome P450 2D6)
